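At the GI50, growth is halved. TGI is the concentration that stops growth completely.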
Legend:
Experiment in all cases: NCI-60 cell line screen, 384-well format
[1] = test system: SW-620 colon
[2] = test system: A549 NSCLC
[3] = test system: U251 glioblastoma
[4] = test system: MDA-MB-468 breast
[5] = test system: OVCAR-8 ovarian
[6] = test system: MALME-3M melanoma
[7] = test system: NCI-H460 NSCLC
[8] = test system: HOP-62 NSCLC
[9] = test system: UACC-257 melanoma
[10] = test system: SK-OV-3 ovarian
[11] = test system: RPMI-8226 leukemia
[12] = test system: MOLT-4 leukemia
[13] = test system: EKVX NSCLC

Row | Structure (SMILES) | GI50 [1] [nM] | TGI [1] [nM] | GI50 [2] [nM] | TGI [2] [nM] | GI50 [3] [nM] | TGI [3] [nM] | GI50 [4] [nM] | TGI [4] [nM] | GI50 [5] [nM] | TGI [5] [nM] | GI50 [6] [nM] | TGI [6] [nM] | GI50 [7] [nM] | TGI [7] [nM] | GI50 [8] [nM] | TGI [8] [nM] | GI50 [9] [nM] | TGI [9] [nM] | GI50 [10] [nM] | TGI [10] [nM] | further results
1 | c1ccc2c(NCCCN3CCN(CCCNc4c5ccccc5nc5ccccc45)CC3)c3ccccc3nc2c1 | 452 | 2350 | 445 | 1930 | 223 | 766 | 305 | 670 | 296 | 1560 | 702 | 1880 | 170 | 384 | 96.4 | 463 | 1390 | 2700 | 458 | 2450 | GI50 [11]: 134 nM; TGI [11]: 291 nM; GI50 [12]: 23.2 nM; TGI [12]: 50.9 nM; GI50 [13]: 1330 nM; TGI [13]: 3950 nM
2 | CN1CCN(c2ccc(-c3cccc(CN4CCOCC4)c3)cc2NC(=O)c2c[nH]c(=O)cc2C(F)(F)F)CC1 | 11700 | > 45200 | 14400 | > 100000 | 12100 | 30900 | 12000 | 28900 | 18300 | > 100000 | 14700 | 28100 | 8790 | 23500 | 21000 | > 65300 | 15300 | 28700 | > 61100 | > 100000 | GI50 [11]: 17900 nM; TGI [11]: 43400 nM; GI50 [12]: 5860 nM; TGI [12]: 11500 nM; GI50 [13]: 33500 nM; TGI [13]: > 100000 nM

From PubChem BioAssay (NCI)
